# Source: US6677377B2, “Structure based discovery of inhibitors of matriptase for the treatment of cancer and other conditions” (Georgetown University School of Medicine, priority 2000, dated 2004)
# pKi: −log10 of the molar value. “Also recorded” adds a separate entry of the source. Read-outs that look alike come from different tables or passages of the source.
# Assays:
# [1] = tested on: PC-3 prostate cancer tumors; conditions: nude mice; cited from earlier work
# [2] = target: T1, urokinase-type plasminogen activator (uPA) (Homo sapiens, UniProt P00749); experiment: Determination of inhibitory activity, Ki by Dixon plotting, uPA; assay type: biochemical; conditions: for pKi: substrate N-t-Boc-Leu-Gly-Arg-AMC, pH 8.5, room temperature; for selectivity between matriptase and uPA (less potent for uPA than for matriptase): ratio of Ki values
# T1 construct: from tissue; host or cells: human urine
# Description: (§1) Materials. Active matriptase was purified from human milk as will be described later. Active urokinase-type plasminogen activator (uPA) was purified by aminobenzamidine-Sepharose 6B (Amersham Pharmacia, Piscataway, N.J.) from a partially purified uPA from human urine. Bovin β-trypsin, bovine thrombin, and fluorescent peptide substrates N-tert-Butoxy-Carbonyl (N-t-Boc)-Gln-Ala-Arg-7-Amido-4-Methylcoumarin (AMC), N-t-Boc-Leu-Gly-Arg-AMC, and N-t-Boc-Leu-Arg-Arg-AMC were purchased from Sigma (Sigma Chemical Company, St. Louis). Small molecule inhibitors were obtained from the Drug Synthesis & Chemistry Branch, Developmental Therapeutics Program, Division of Cancer Treatment and Diagnosis, National Cancer Institute. Other chemicals are all reagent grade.
# (§2) Determination of Inhibitory Activity. Inhibitory activity of compounds against each protease was measured at room temperature using fluorescent substrate peptides in 100 mM Tris-HCl (pH 8.5), containing 100 μg/ml of bovine serum albumin. To a cuvette containing 170 μl buffer was added 10 μl of enzyme solution and 10 μl of inhibitors. After pre-incubation, 10 μl of substrate was added, and the solution was mixed well by shaking the cuvette. The residual enzyme activity was then determined by following the change of fluorescence released by hydrolysis of the fluorescent substrates in a fluorescent spectrophotometer (HITACHI F4500), with excitation at 360 nm and emission at 480 nm. Peptide N-t-Boc-Gln-Ala-Arg-AMC was used as a substrate for matriptase and trypsin, peptide N-t-Boc-Leu-Gly-Arg-AMC was used as a substrate for uPA, and peptide N-t-Boc-Leu-Arg-Arg-AMC was used as a substrate for thrombin.
# (§3) Kinetic Screening of Compound Inhibitors. The inhibitory activity of each compound was first investigated by using a fixed (75 μM) concentration both of inhibitor and matriptase. […] We recorded the rate of hydrolysis in duplicate in the presence of 6-7 different concentrations of each inhibitor. A straight line of the concentration of inhibitor versus the reciprocal values of the rate of hydrolysis was plotted with SigmaPlot software. Two lines were obtained from two unsaturated substrate concentrations; the X value of the intersection of these lines gives the value of −Ki.
# bovine thrombin = target: T2, bovine thrombin (Bos taurus, UniProt P00735); experiment: Determination of inhibitory activity, Ki by Dixon plotting, thrombin; assay type: biochemical; conditions: for pKi: substrate N-t-Boc-Leu-Arg-Arg-AMC, pH 8.5, room temperature
# T2 construct: bovine thrombin; purchased Sigma (Sigma Chemical Company, St. Louis)
# Description: as §1, §2, §3
# matriptase [3] = target: T3, matriptase (Homo sapiens, UniProt Q9Y5Y6); experiment: Determination of inhibitory activity, Ki by Dixon plotting, matriptase; assay type: biochemical
# T3 construct: Gels containing the 70-kDa active matriptase was sliced out, and eluted from gel; from tissue; host or cells: human milk
# T3 sequence (Q9Y5Y6 615-855 limits assumed): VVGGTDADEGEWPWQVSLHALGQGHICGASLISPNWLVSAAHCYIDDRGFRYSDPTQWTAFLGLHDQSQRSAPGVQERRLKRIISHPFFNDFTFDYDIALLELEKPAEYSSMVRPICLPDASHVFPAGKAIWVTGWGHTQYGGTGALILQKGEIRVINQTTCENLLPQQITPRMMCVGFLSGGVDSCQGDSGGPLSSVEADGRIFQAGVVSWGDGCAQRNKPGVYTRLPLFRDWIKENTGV
# T3 sequence (Q9Y5Y6 190-614 partner limits assumed): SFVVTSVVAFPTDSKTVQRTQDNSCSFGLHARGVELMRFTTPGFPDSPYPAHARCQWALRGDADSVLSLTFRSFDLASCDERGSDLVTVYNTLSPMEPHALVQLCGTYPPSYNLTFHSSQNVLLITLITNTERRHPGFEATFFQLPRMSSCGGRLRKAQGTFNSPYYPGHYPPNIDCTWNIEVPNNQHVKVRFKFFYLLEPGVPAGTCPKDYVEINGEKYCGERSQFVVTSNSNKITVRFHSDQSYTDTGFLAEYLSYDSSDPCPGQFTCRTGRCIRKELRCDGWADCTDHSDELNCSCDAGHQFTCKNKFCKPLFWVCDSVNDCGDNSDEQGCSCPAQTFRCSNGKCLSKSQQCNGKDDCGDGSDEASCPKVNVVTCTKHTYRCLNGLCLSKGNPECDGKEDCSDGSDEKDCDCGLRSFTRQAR
# Description: Purification of Active Form Matriptase. Activated matriptase, in a complex with its endogenous inhibitor HAI-1, was purified from human milk by immunoaffinity chromatography, and maintained in its uncomplexed status in glycine buffer pH 2.4, as described previously^11. Matritpase and HAI-1 were further separated by 10% SDS polyacryamide gel electrophoresis. The proteins were stained by Zinc stain Kit (Bio-Rad, Hercules, Calif.). Gels containing the 70-kDa active matriptase was sliced out, and eluted from gel using Electro-Eluter (Bio-Rad, Hercules, Calif.) under non-denatured conditions (Tris-Glysine buffer pH 8.3). Purified, active matriptase was then stored at −80° C. in acid solution.
# as §2, §3
# matriptase [4] = target: T3, matriptase; experiment: Matriptase enzyme activity and kinetic parameters with fluorescent peptide substrates; assay type: biochemical
# Description: Purification of active Matriptase_Active matriptase, in the complex form with its endogenous inhibitor HAI-1, was purified from human milk. To separate matriptase from the bound HAI-1, the complex was dissociated by acid and resolved in 10% SDS polyacryamide gel electrophoresis. The proteins were stained by Zinc stain Kit (Bio-Rad, Hercules, Calif.), the 70-kDa active matriptase was sliced out, and eluted from gel using Electro-Eluter (Bio-Rad, Hercules, Calif.) under non-denatured condition (Tris-Glysine buffer pH 8.3).
# Determination of matriptase activity_The enzyme activity of matriptase was measured at room temperature in a reaction buffer containing 100 mM Tris-HCl (pH 8.5) and 100_g/ml of BSA using fluorescent peptide as substrate. In brief, 10_l of enzyme solution and 10_l of peptide substrate were added to a cuvette containing 180_l of the reaction buffer. The mixture was mixed well, placed back to a fluorescent spectrophotometer (HITACH F4500), and the release of fluorescence resulting from hydrolysis of the peptide substrate was recorded with excitation at 360 nm and emission at 480 nm.
# Determination of kinetic parameter_Substrate concentration versus initial reaction velocity were analyzed by the Michaelis-Menten equation and plotted using SigmaPlot software. Double reciprocal (Lineweaver-Burk) plots thus derived were used to determine Vmax and Km values.
# Table 1. Kinetic Parameters of Matriptase for Various Peptide Substrates. […], the release of fluorescence resulting from hydrolysis of the peptide was recorded in a fluorescent spectrophotometer at room temperature with excitation at 360 nm and emission at 480 nm. Km and Vmax were determined by double reciprocal plot derived from Michaelis-Menten equation: […]
# [5] = read-out: Ki value against matriptase (bound stated in text)
# [6] = substrate N-t-Boc-Gln-Ala-Arg-AMC, pH 8.5, room temperature, read-out: Ki Matriptase
# [7] = peptide-AMC substrate hydrolysis by matriptase, room temperature
Compound,pKi [2],pKi (bovine thrombin),selectivity matriptase versus thrombin/uPA (matriptase [3]),pKi (matriptase [3]; [5]),pKi (matriptase [3]; [6]),also measured
ecotin,,,,,,growth of PC-3 prostate cancer tumors [1]: retards the growth
N=C(N)c1ccc(OCCCCCCOc2ccc(C(=N)N)cc2I)cc1 [Compound 2],5.70,6.10,more selective for matriptase versus thrombin,> 6.00,6.72,decreased potency for thrombin (bovine thrombin; compared with compound 1): approximately 4 fold; improved potency for matriptase (matriptase [3]; compared with compound 1): approximately 5 fold
N=C(N)c1ccc(/N=N/c2c(O)ccc3cc4c(/N=N/c5ccc(C(=N)N)cc5)c(O)ccc4cc23)cc1 [Compound 4],,4.55,,,5.35,
N=C(N)c1ccc(OCCCCCOc2ccc(C(=N)N)cc2)cc1 [Compound 3],,,,,5.94,
CC(=O)N[C@@H](CC(C)C)C(=O)N[C@@H](CC(C)C)C(=O)N[C@H](C=O)CCCNC(=N)N [leupeptin],,,,,,inhibition of matriptase enzyme activity (matriptase [4]): can also inhibit matriptase enzyme activity
N=C(N)c1ccc(Oc2ccc(Oc3ccc(C(=N)N)cc3)cc2)cc1 [Compound 7],5.71,5.57,most selective inhibitor for matriptase; also recorded: matriptase selective; also recorded: most selective compound,> 6.00,6.68,selectivity between matriptase and uPA (less potent for uPA than for matriptase) [2]: 9 fold; selectivity between matriptase and thrombin (bovine thrombin; ratio of Ki values): 13 fold
N=C(N)c1ccc(OCCCOc2ccc(C(=N)N)cc2Br)c(Br)c1 [Compound 5],5.80,6.02,,> 6.00,6.27,more potent against matriptase (matriptase [3]; compared with 1 and 3): approximately 2 fold
hexamidine [Compound 1],,,,,,Km (matriptase [4]; [7]): 4.89 µM; Vmax (matriptase [4]; [7]): 654 nM Amc/min
"N=C(N)c1ccc(OCCCCCCOc2ccc(C(=N)N)cc2)cc1 [Compound 1, hexamidine, reference compound]",4.84,6.65,thrombin selective,> 6.00,6.03,selectivity between matriptase and uPA (less potent for uPA than for matriptase) [2]: 16 fold
